In patent US20080138411A1, “Modified Release Formulations Of Selective Serotonin Re-Uptake Inhibitors” (priority 2002, published 2008):
Counter-ions that a name gives are not always drawn. Like-named read-outs stand apart in the source and are kept apart here.

Experiments:
[1] = cited from earlier work
[2] = Particle size measurement of Citalopram HBr, Paroxetine HCl and Fluoxetine HCl; format: physicochemical; details: for D (v, 0.9) / D (v. 0.1) / Mean, D [4, 3] / Median, D (v, 0.5) / Span / Uniformity: Dispersed in air, Distribution Type: Volume
Description: Particle size measurements were conducted on Paroxetine HCl.

[3] = cited from earlier work; remark: listed apart in the source
[4] = cited from earlier work; remark: listed apart in the source
[5] = cited from earlier work; remark: listed apart in the source
[6] = 30 mg tablets daily for 30 days, normal male subjects
[7] = 30 mg tablets daily for 30 days
[8] = single dose with and without food

**Q.** Which “single and multiple dose pharmacokinetics” value ([1]; dose range of 10 to 30 mg per day) does the source give for CN(C)CCC[C@@]1(c2ccc(F)cc2)OCc2cc(C#N)ccc21 [Escitalopram, S-(+)-1-[3-(dimethyl-amino)propyl]-1-(β-fluorophenyl)-5-phthalancarbonitrile oxalate] here?
**A.** linear and dose proportional

**Q.** And the “mean Tmax” value ([1]; single oral dose (20 mg tablet))?
**A.** 5 ± 1.5 h

**Q.** For Br.CN(C)CCCC1(c2ccc(F)cc2)OCc2cc(C#N)ccc21 (centres unmarked) [Citalopram HBr Provided by Supplier 2], which “D (v, 0.9)” value [2] is on record?
**A.** 1191.10 µm

**Q.** And the “D (v. 0.1)” value [2]?
**A.** 1.62 µm

**Q.** And the “Mean, D [4, 3]” value [2]?
**A.** Mean, D [4, 3] = 259.27 µm

**Q.** What about the “Median, D (v, 0.5)” value [2] of the same compound?
**A.** 7.27 µm

**Q.** What about the Span [2] of the same compound?
**A.** Span = 1.637E+02

**Q.** And the Uniformity [2]?
**A.** Uniformity = 3.518E+01

**Q.** Which results are given for Fc1ccc([C@@H]2CCNC[C@H]2COc2ccc3c(c2)OCO3)cc1 [Paroxetine, (−)-trans-4R-(4′-fluorophenyl)-3S[(3′,4′-methylenedioxyphenoxy)methyl]piperidine hydrochloride (hemihydrate)]?
**A.** D (v, 0.9) [2]: D (v, 0.9) = 16.56 µm; D (v. 0.1) [2]: D (v. 0.1) = 0.85 […]mMedian,; Mean, D [4, 3] [2]: Mean, D [4, 3] = 11.02 µm; Median, D (v, 0.5) [2]: D (v, 0.5) = 4.44 µm; Span [2]: Span = 3.541E+00; Uniformity [2]: Uniformity = 1.980E+00; Cmax at steady state, mean [3, 6]: 61.7 ng/mL; Cmin at steady state, mean [3, 6]: 30.7 ng/mL; Tmax at steady state, mean [3, 6]: 5.2 h; t1/2 at steady state, mean [3, 6]: 21.0 h; steady state Cmax relative to prediction from single dose studies [3, 7]: about 6 times; steady state Cmin relative to prediction from single dose studies [3, 7]: ~14 times; steady state drug exposure based on AUC0-24 relative to prediction from single dose data [3, 7]: about 8 times; time to steady state Paroxetine concentrations ([3]; 30 mg tablets daily, most subjects): approximately 10 days; increase of AUC when administered with food [3, 8]: 6%; increase of Cmax when administered with food [3, 8]: 29%; time to reach peak plasma concentration ([3]; single dose with food): 4.9 h; time to reach peak plasma concentration ([3]; single dose without food): 6.4 h

**Q.** Which results are given for CN[C@H]1CC[C@@H](c2ccc(Cl)c(Cl)c2)c2ccccc21.Cl [Sertraline, (1S-cis)-4(3,4-dichlorophenyl)-1,2,3,4-tetrahydro-N-methyl-1-naphthalenamine hydrochloride]?
**A.** Tmax ([4]; oral concentrate, single dose with food): 7.0 h; increase of Cmax with food ([4]; tablet, single dose with and without food): 25%

**Q.** What does the source list for CNCCC(Oc1ccc(C(F)(F)F)cc1)c1ccccc1.Cl (centres unmarked) [Fluoxetine HCl Provided by Supplier 1]?
**A.** Dia.on % (10.0%) ([2]; Dist. Base: Volume): 7.877 µm; Dia.on % (20.0%) ([2]; Dist. Base: Volume): 10.941 µm; Dia.on % (35.0%) ([2]; Dist. Base: Volume): 15.114 µm; Dia.on % (70.0%) ([2]; Dist. Base: Volume): 29.4885 µm; Dia.on % (90.0%) ([2]; Dist. Base: Volume): 118.199 µm; Particle size, C.V. ([2]; Dist. Base: Volume): 161.24%; Particle size, Mean ([2]; Dist. Base: Volume): 45.505 µm; Particle size, Median ([2]; Dist. Base: Volume): 19.672 µm; SP. Area ([2]; Dist. Base: Volume): 3861 cm^2/cm^2

**Q.** Which absolute bioavailability ([5]; relative to an intravenous dose) does the source give for CN(C)CCCC1(c2ccc(F)cc2)OCc2cc(C#N)ccc21 (racemic) [Citalopram, (RS)-1-[3-(dimethylamino)propyl]-1-(4-fluorophenyl)-5-phthalancarbonitrile hydrobromide] here?
**A.** about 80%

**Q.** What about the “time at which peak blood levels occur” value ([5]; single oral dose (40 mg tablet)) of the same compound?
**A.** about 4 hours

**Q.** Which results are given for Br.CN(C)CCCC1(c2ccc(F)cc2)OCc2cc(C#N)ccc21 (centres unmarked) [Citalopram HBr Provided by Supplier 1]?
**A.** Dia.on % (10.0%) ([2]; Dist. Base: Volume): 3.267 µm; Dia.on % (20.0%) ([2]; Dist. Base: Volume): 4.606 µm; Dia.on % (35.0%) ([2]; Dist. Base: Volume): 6.212 µm; Dia.on % (70.0%) ([2]; Dist. Base: Volume): 10.295 µm; Dia.on % (90.0%) ([2]; Dist. Base: Volume): 14.874 µm; Particle size, C.V. ([2]; Dist. Base: Volume): 54.90%; Particle size, Mean ([2]; Dist. Base: Volume): 8.569 µm; Particle size, Median ([2]; Dist. Base: Volume): 7.781 µm; Particle size, Mode ([2]; Dist. Base: Volume): 8,253 µm; SP. Area ([2]; Dist. Base: Volume): 10290 cm^2/cm^2; Span: (D 20.0-D 10.0)/D50 ([2]; Dist. Base: Volume): Span: (D 20.0-D 10.0)/D50 = 0.172

**Q.** For CNCCC(Oc1ccc(C(F)(F)F)cc1)c1ccccc1.Cl (centres unmarked) [Fluoxetine HCl Provided by Supplier 2], which “Dia.on % (10.0%)” value ([2]; Dist. Base: Volume) is on record?
**A.** 5.668 µm

**Q.** And the “Dia.on % (20.0%)” value ([2]; Dist. Base: Volume)?
**A.** 9.337 µm

**Q.** What about the “Dia.on % (35.0%)” value ([2]; Dist. Base: Volume) of the same compound?
**A.** 14.546 µm

**Q.** What about the “Dia.on % (70.0%)” value ([2]; Dist. Base: Volume) of the same compound?
**A.** 42.5575 µm

**Q.** What about the “Dia.on % (90.0%)” value ([2]; Dist. Base: Volume) of the same compound?
**A.** 296.388 µm

**Q.** What about the “Particle size, C.V.” value ([2]; Dist. Base: Volume) of the same compound?
**A.** 144.70%

**Q.** And the “Particle size, Mean” value ([2]; Dist. Base: Volume)?
**A.** 86.383 µm

**Q.** What about the “Particle size, Median” value ([2]; Dist. Base: Volume) of the same compound?
**A.** 20.638 µm

**Q.** What about the “SP. Area” value ([2]; Dist. Base: Volume) of the same compound?
**A.** 5004 cm^2/cm^2
